These results are taken from PubChem BioAssay AID1996.

Converted amounts (≈) assume the structure as drawn.

The conditions of the data set: buffer; pH 7.4; 200.0 µM.
By kinetic solubility is commonly meant solubility judged after dilution from a stock solution rather than from solid. As for `CC(NC(=O)c1ccco1)c1nc(-c2ccc(C(C)(C)C)cc2)no1` (stereo unspecified), the kinetic solubility is 0.9 µg/mL (≈ 2.65 µM).
Under `CCOc1cc(/C=C2\C(=O)ON=C2c2ccccc2)ccc1OC` stands 46.1 µg/mL (≈ 143 µM); under `COc1cccc(C(=O)COc2cccc(NC(=O)c3ccco3)c2)c1`, 14 µg/mL (≈ 39.8 µM).
With `O=C(NCc1ccccc1)c1cccc(S(=O)(=O)N2CCCCC2)c1`, the kinetic solubility was 7.6 µg/mL (≈ 21.2 µM).
On to `Cl.O=C(NN1C(=O)CSC1=S)c1cccnc1`, for which the kinetic solubility was over 43.5 µg/mL.
Take `O=C(Nc1ccc2c(c1)OCCO2)c1ccc(Cl)cc1Cl`: the solubility (kinetic) worked out at 3.5 µg/mL (≈ 10.8 µM).
Under `CCOc1ncccc1C(=O)OCC(=O)NCc1ccc(C(=O)OC)cc1` stands over 55.9 µg/mL; under `O=C1CC2C(=O)NCCN2C(=NC(=O)c2ccccc2)N1` (stereo unspecified), 41.2 µg/mL (≈ 144 µM).
Under `COc1ccc(/C=C(\C#N)C(=O)Nc2cccc(C)n2)cc1` stands 0.4 µg/mL (≈ 1.36 µM).
The value for `COc1ccc(OCC(O)CN2CCCC2)cc1` (stereo unspecified) was 30.7 µg/mL (≈ 122 µM); that for `O=C(C[n+]1ccccc1)Nc1ccccc1` was 26.3 µg/mL.
As for `CC(C)CC(=O)N1CCN(Cc2ccccc2Cl)CC1`, the solubility (kinetic) came to 30.7 µg/mL (≈ 104 µM).
Under `COc1ccc(Cl)cc1NC(=O)NN1CCN(C)CC1` stands over 44.8 µg/mL; under `CC(=O)c1ccccc1NC(=O)CSc1n[nH]c(=O)n1C1CC1`, over 49.9 µg/mL.
Under `CCCNC(=S)Nc1cc2oc3ccccc3c2cc1OC` stands 0.4 µg/mL (≈ 1.27 µM); under `CCC(C)c1ccccc1N=Cc1ccc2c(c1)OCO2` (stereo unspecified), 7.1 µg/mL (≈ 25.2 µM).
The value for `O=C(O)CCC(=O)N1CCC[C@H]1C(=O)O` was over 32.3 µg/mL; that for `CCOC(=O)c1c(CC(C)C)csc1/N=C/C1=C(O)CCCC1=O` was 2.3 µg/mL (≈ 6.58 µM); that for `N#Cc1c(-c2ccc(Cl)cc2)cc(-c2cccs2)nc1SCC(=O)O` was 13.2 µg/mL (≈ 34.1 µM).
As for `Cc1ccc(NC(=O)Cc2ccsc2)cc1S(=O)(=O)N1CCOCC1`, the solubility (kinetic) is over 57.1 µg/mL.
Under `CN(C(=O)COC(=O)C12CC3CC(CC(Cl)(C3)C1)C2)c1ccccc1` stands 21.4 µg/mL (≈ 59.1 µM).
The value for `CNC(=S)Nc1cccc(S(=O)(=O)NC2=NCCC2)c1` was 45.7 µg/mL (≈ 146 µM).
The value for `COc1ccc(S(=O)(=O)Oc2cc(C(=S)N3CCOCC3)ccc2OC)cc1` was 25.4 µg/mL (≈ 60 µM); that for `O=C(CN1C(=O)/C(=C2/SC(=S)N(CCS(=O)(=O)O)C2=O)c2ccccc21)Nc1cccc(C(F)(F)F)c1` was 5.9 µg/mL (≈ 10.3 µM); that for `Cc1cc(C)c(NC(=S)N(C)C)cc1C` was over 33.4 µg/mL.
The compound `CCn1ccnc1C(O)(c1ccccc1)c1ccccc1` showed a kinetic solubility of over 41.8 µg/mL.
Under `Cc1ccccc1N1C(=O)c2ccccc2C1O` (stereo unspecified) stands 35.8 µg/mL (≈ 150 µM).
In turn, `CC(C)n1cc(/C(N)=N/O)c(=O)n(Cc2ccccc2)c1=O` came in with a kinetic solubility of over 45.3 µg/mL.
On to `COC(=O)c1sc(NC(=O)c2c(F)cccc2F)c(C#N)c1C`, for which the solubility (kinetic) came to 7.2 µg/mL (≈ 21.4 µM).
Under `O=C(c1ccc([N+](=O)[O-])cc1)c1cc2ccc(O)cc2oc1=O` stands 2 µg/mL (≈ 6.43 µM); under `COc1ccc(S(=O)(=O)N2CCc3ccccc32)cc1C(=O)NCC(c1ccco1)N1CCCC1` (stereo unspecified), 20.1 µg/mL (≈ 40.6 µM).
Under `COc1ccccc1NS(=O)(=O)c1cc(NC(=O)c2ccccc2[N+](=O)[O-])ccc1N1CCOCC1` stands 4.4 µg/mL (≈ 8.58 µM); under `NC1=NC(c2ccc(Cl)cc2)C(C(=O)c2ccccc2)N1` (stereo unspecified), 4.9 µg/mL (≈ 16.3 µM); under `Cn1ncc(Cl)c1C(=O)N1CCC2(CC1)OCCO2`, over 42.9 µg/mL.
The value for `CC1CC(=O)N(C)c2cc([N+](=O)[O-])ccc2N1` (stereo unspecified) was over 35.3 µg/mL; that for `O=C(Nc1cccc(Cl)c1Cl)C1CCCO1` (stereo unspecified) was 26.7 µg/mL (≈ 103 µM); that for `CC1=C(C)CC(C(=O)Nc2nc(C)cs2)C(C(=O)O)C1` (stereo unspecified) was over 44.2 µg/mL.
Consider `COc1ccc(C2CC(=O)C=C(NCc3ccc4c(c3)OCO4)C2)cc1` (stereo unspecified), for which the kinetic solubility came to 8.5 µg/mL (≈ 24.2 µM).
Under `Cc1ccc(NC(=O)c2ccsc2)cc1NS(C)(=O)=O` stands over 46.6 µg/mL; under `COc1cc([N+](=O)[O-])cc([N+](=O)[O-])c1NC(=O)N1CCOCC1`, over 48.9 µg/mL; under `COc1cc(N)c(Cl)cc1C(=O)OCC(=O)NC(=O)NCc1ccco1`, 5.3 µg/mL (≈ 13.9 µM).
The compound `CCC(C)NC(=O)CN1C(=O)NC2(CCc3ccccc3C2)C1=O` (stereo unspecified) gave a kinetic solubility of over 49.4 µg/mL.
Under `CCOC(=O)c1ccc(NC(=S)N2CCN(c3ccccn3)CC2)cc1` stands 1.2 µg/mL (≈ 3.24 µM); under `NS(=O)(=O)c1ccc(CCNC(=O)c2ccc(Cl)c(S(=O)(=O)N3CCCCC3)c2)cc1`, 12.1 µg/mL (≈ 24.9 µM).
Under `CC1CCN(C(=O)/C(=C\c2ccco2)NC(=O)c2ccccc2)CC1` stands over 50.8 µg/mL; under `Cc1ccc(NC(=O)N2CCC(c3ccccc3)C2)cc1C` (stereo unspecified), 2.6 µg/mL (≈ 8.83 µM); under `O=C1NC2(CCCCCC2)C(=O)N1Cc1ccccc1`, over 40.9 µg/mL.
The compound `Cc1nn(CC(=O)OCC(=O)NCCc2ccc(F)cc2)c(C)c1[N+](=O)[O-]` came in with a kinetic solubility of over 56.8 µg/mL.
Under `O=C(Nc1ccc(O)cc1)/C(=C/c1ccco1)NC(=O)c1ccccc1` stands over 52.3 µg/mL.
Under `CC(=O)N1C(C)(C)CC(=NOC(=O)c2ccccc2)CC1(C)C` stands 47.1 µg/mL (≈ 149 µM).
For `COC(=O)c1cc(-c2cccc([N+](=O)[O-])c2)c2c(=O)[nH]c(=O)n(C)c2n1`, the kinetic solubility stood at 1.1 µg/mL (≈ 3.09 µM).
Under `C/C(=C\c1ccccc1)CN1CCN(Cc2ccc(C)o2)C(CCO)C1` (stereo unspecified) stands 42.2 µg/mL (≈ 119 µM); under `CSc1nc2sc3c(c2c(=O)n1C)CCC3`, 2.6 µg/mL (≈ 10.3 µM).
The value for `Cc1c(C(=O)NC2CCCc3ccccc32)cccc1[N+](=O)[O-]` (stereo unspecified) was 6.1 µg/mL (≈ 19.7 µM).
The value for `CCOC(=O)c1csc(NC(=O)c2cc(=O)c3ccccc3o2)n1` was 11.5 µg/mL (≈ 33.4 µM).
In the case of `Cn1c(S(=O)(=O)Cc2ccc(Cl)cc2)nc2ccccc21`, the solubility (kinetic) worked out at 8.7 µg/mL (≈ 27.1 µM).
Under `COc1cccc(NC(=O)Nc2ccc3c(c2)OCO3)c1` stands 3.7 µg/mL (≈ 12.9 µM); under `O=C1C2CCCN2C(=S)N1Cc1ccccc1` (stereo unspecified), over 36.9 µg/mL.
Under `COc1ccc(N2C(=O)CC(c3ccccc3)C2=O)cc1` (stereo unspecified) stands 11.2 µg/mL (≈ 39.8 µM); under `COc1ccc(COc2cccnc2N)cc1`, 20.1 µg/mL (≈ 87.3 µM); under `Cn1c(C(=O)O)ccc1S(=O)(=O)N(Cc1ccccc1)Cc1ccccc1`, over 57.7 µg/mL.
The value for `COc1ccc(N2CCN(C(CNC(=O)C(=O)NCCCO)c3ccco3)CC2)cc1` (stereo unspecified) was over 64.6 µg/mL; that for `CCc1c(O)nc(SCC(=O)c2ccccc2)n(-c2ccccc2)c1=O` was 44.6 µg/mL (≈ 122 µM); that for `Cc1ccc(N2C(=O)CN(Cc3cccs3)C2=S)cc1C` was under 0.3 µg/mL.
As to `O=c1c2cc(Br)ccc2[nH]c(=S)n1Cc1ccccc1`, the kinetic solubility is under 0.4 µg/mL.
For the compound `CCCN1C[C@H](CSC)C[C@@H]2c3cccc4[nH]cc(c34)C[C@H]21.CS(=O)(=O)O`, the kinetic solubility is 2.3 µg/mL.
Compound `COCc1c(C(=O)Nc2cccc(S(=O)(=O)N3CCCCC3)c2)oc2ccccc12` returned a solubility (kinetic) of 3.1 µg/mL (≈ 7.23 µM).
The value for `O=C(O)c1cccc(NC(=O)c2ccccc2NC(=O)c2cccc([N+](=O)[O-])c2)c1` was 48.3 µg/mL (≈ 119 µM).
Take `CC(=O)c1cccc(NC(=O)c2cnccn2)c1`: the kinetic solubility was over 36.2 µg/mL.
The value for `CCc1cc2ccc(C)cc2nc1SCC(=O)NC1CCCC1` was 1.2 µg/mL (≈ 3.65 µM); that for `COc1ccc(S(=O)(=O)NC(C)C(=O)NCc2ccncc2)cc1Cl` (stereo unspecified) was over 57.6 µg/mL.
The value for `CC(=O)c1ccc(S(=O)(=O)NC2CC2)cc1` was 26.1 µg/mL (≈ 109 µM); that for `CCOc1ccc(CN(C)C(=O)c2ccc(=O)[nH]c2)cc1` was 29.3 µg/mL (≈ 102 µM); that for `CC1=Nc2cccc([N+](=O)[O-])c2NC(=O)C1` was over 32.9 µg/mL.
The value for `CCCCn1c(=O)c(CCC(=O)O)nc2ccccc21` was 31.8 µg/mL (≈ 116 µM).
`CCN1c2ccccc2N(C)C1(C)c1ccccc1` (stereo unspecified) gave a kinetic solubility of 21.5 µg/mL (≈ 85.2 µM).
Under `Cc1cnc(NC(=O)Cc2ccccc2F)s1` stands 3.4 µg/mL (≈ 13.6 µM); under `NC(=S)N/N=C/c1c[nH]c2ccccc12`, over 32.7 µg/mL; under `CC(C)n1cnc2cc(NCc3ccccc3O)ccc21`, 32 µg/mL (≈ 114 µM).
`Cc1cccc(NC2=C(Cl)C(=O)OC2OC(C)C)c1` (stereo unspecified) returned a kinetic solubility of over 42.3 µg/mL.
`N#Cc1cccc(C(=O)Nc2ccc(S(=O)(=O)Nc3nccs3)cc2)c1` displayed a solubility (kinetic) of over 57.7 µg/mL.
Under `Cc1ccc(NC(=O)C2Cc3ccccc3C(=O)O2)cc1` (stereo unspecified) stands 4.7 µg/mL (≈ 16.7 µM); under `Oc1ccccc1C=NCCCCCCN=Cc1ccccc1O`, 47.4 µg/mL (≈ 146 µM).
The value for `O=[N+]([O-])c1cc(S(=O)(=O)N2CCCC2)ccc1SCCO` was over 49.9 µg/mL; that for `CCCN(CCC)C(=O)c1cc2c(=O)n3cccc(C)c3nc2s1` was 34.7 µg/mL (≈ 101 µM); that for `Cn1ccc(=S)c2ccccc21` was 25.2 µg/mL (≈ 144 µM).
The value for `Cc1ccc(S(=O)(=O)N2CCOCC2)cc1C(=O)NC(C)CCc1ccccc1` (stereo unspecified) was 25.1 µg/mL (≈ 60.3 µM).
For `COc1ccc(C(=O)CCC(=O)NCCc2ccccc2F)cc1`, the solubility (kinetic) turned out to be 16.9 µg/mL (≈ 51.3 µM).
Compound `CC1(C)Cc2nc3sc(C(N)=O)c(N)c3cc2CO1` yielded a solubility (kinetic) of over 41.6 µg/mL.
Under `O=C(COC(=O)c1ccc(Cl)nc1)NCc1ccc(F)cc1` stands 14.3 µg/mL (≈ 44.3 µM).
Under `Cc1ccc(S(=O)(=O)Nc2ccccc2N2CCOCC2)cc1` stands 0.8 µg/mL (≈ 2.41 µM).
Under `O=C(COC(=O)Cc1c(F)cccc1Cl)NCc1ccc2c(c1)OCO2` stands 46.5 µg/mL (≈ 122 µM); under `CCOC(=O)c1c(C)[nH]c(C)c1C(=O)COC(=O)c1ccc(Cl)nc1`, over 54.7 µg/mL; under `O=C(Nc1ccc(F)cc1)c1ccc(S(=O)(=O)N2CCOCC2)o1`, over 53.2 µg/mL.
For `NC(=NC1CCCCC1)NS(=O)(=O)c1ccccc1`, the kinetic solubility is over 42.2 µg/mL.
The value for `Cc1ccc2c(c1)C1(C)C(C(C)(C)N2C=O)C1(Cl)Cl` (stereo unspecified) was 39.3 µg/mL (≈ 132 µM).
Under `S=C(NCCCn1ccnc1)Nc1cccc(Cl)c1` stands over 44.2 µg/mL; under `Cc1noc(C)c1C(=O)OC(C)C(=O)N1CCc2ccccc21` (stereo unspecified), 6 µg/mL (≈ 19.1 µM); under `CC1CCN(c2cc(Br)c([N+](=O)[O-])cc2F)CC1`, 3.1 µg/mL (≈ 9.77 µM).
The value for `CCCCc1nc2sc3c(c2c(=O)[nH]1)CC(C)(C)OC3` was 2.3 µg/mL (≈ 7.87 µM).
As for `O=C(CCSCc1ccccc1F)NCc1ccc(F)cc1`, the solubility (kinetic) stood at 32.8 µg/mL (≈ 102 µM).
